Results taken from ChEMBL document CHEMBL5230141, “Focused Libraries for Epigenetic Drug Discovery: The Importance of Isosteres” (J Med Chem, 2021).

Experiments:
[1] = Inhibition of PI3K (unknown origin); parameters: species or system Homo sapiens
[2] = molecular target: Histone-lysine N-methyltransferase EZH2 (Homo sapiens, UniProt Q15910); assay: Inhibition of EZH2 (unknown origin)
Histone-lysine N-methyltransferase EZH2, sequence (Q15910 whole entry): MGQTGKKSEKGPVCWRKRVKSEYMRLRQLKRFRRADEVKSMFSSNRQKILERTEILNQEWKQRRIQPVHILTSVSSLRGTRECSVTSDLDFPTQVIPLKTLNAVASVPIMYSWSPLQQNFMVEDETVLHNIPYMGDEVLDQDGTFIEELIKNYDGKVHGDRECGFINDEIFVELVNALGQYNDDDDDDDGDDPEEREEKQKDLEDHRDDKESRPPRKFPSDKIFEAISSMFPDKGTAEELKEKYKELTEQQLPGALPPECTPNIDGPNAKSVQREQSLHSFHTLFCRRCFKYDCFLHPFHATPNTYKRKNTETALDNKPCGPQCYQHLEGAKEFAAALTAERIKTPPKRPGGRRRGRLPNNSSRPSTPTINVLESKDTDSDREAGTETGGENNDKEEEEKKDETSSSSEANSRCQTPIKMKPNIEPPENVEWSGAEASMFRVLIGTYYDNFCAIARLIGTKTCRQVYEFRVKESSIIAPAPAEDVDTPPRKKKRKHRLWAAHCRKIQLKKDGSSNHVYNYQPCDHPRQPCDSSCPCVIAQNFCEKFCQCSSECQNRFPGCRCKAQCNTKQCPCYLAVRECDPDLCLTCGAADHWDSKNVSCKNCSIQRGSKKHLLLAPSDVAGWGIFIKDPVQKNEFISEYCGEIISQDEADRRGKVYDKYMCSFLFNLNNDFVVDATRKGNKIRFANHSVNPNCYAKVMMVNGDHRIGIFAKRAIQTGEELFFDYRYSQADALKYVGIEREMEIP

Row | EC50 [2] | SMILES | Kd [1]
1 |  | CC(C)Oc1ccc(-c2nn([C@@H](C)c3oc4ccc(F)cc4c(=O)c3-c3cccc(F)c3)c3ncnc(N)c23)cc1F [UMBRALISIB] | 6.2 nM
2 | 3400 nM | Cc1cc(C)c(CNC(=O)c2cc(C)n(C3CCCCC3)c2C)c(=O)[nH]1 | 
